Experimental data taken from BindingDB's records for doi:10.7270/Q2930RK5 (University of Pittsburgh, 2008).

molecular target: Serine/threonine-protein kinase PLK1 (Homo sapiens, UniProt P53350); assay: PLK1 kinase inhibition, dose response, selectivity assay for PKD inhibitor project, biochemical (AID 1383)
Sequence (P53350 whole entry): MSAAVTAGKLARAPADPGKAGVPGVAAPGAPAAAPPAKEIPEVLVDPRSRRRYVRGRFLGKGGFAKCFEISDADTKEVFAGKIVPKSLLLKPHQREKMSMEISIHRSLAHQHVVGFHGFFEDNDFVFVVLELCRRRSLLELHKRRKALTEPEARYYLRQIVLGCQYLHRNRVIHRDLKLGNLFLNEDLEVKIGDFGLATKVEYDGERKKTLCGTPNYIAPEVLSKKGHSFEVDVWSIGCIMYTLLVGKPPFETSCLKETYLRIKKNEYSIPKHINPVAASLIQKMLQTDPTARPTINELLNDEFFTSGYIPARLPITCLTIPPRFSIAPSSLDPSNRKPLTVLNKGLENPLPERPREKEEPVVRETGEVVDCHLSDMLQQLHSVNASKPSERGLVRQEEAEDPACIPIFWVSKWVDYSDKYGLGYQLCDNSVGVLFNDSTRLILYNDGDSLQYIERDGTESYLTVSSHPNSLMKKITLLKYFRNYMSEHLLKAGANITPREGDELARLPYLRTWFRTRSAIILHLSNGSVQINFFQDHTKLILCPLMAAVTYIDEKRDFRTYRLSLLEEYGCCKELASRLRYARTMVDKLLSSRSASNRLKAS

| SMILES | IC50 |
| --- | --- |
| N=C(N)NC(=O)c1nc(Cl)c(N)nc1N [3,5-diamino-N-carbamimidoyl-6-chloropyrazine-2-carboxamide] | 6.63 µM |
| CC(=O)Oc1cc(OC(C)=O)c2c(C)cc(=O)oc2c1 [(5-acetyloxy-4-methyl-2-oxochromen-7-yl) acetate] | > 50 µM |
| Cc1cc(NCCCN)nc(-c2ccccc2O)n1 [MLS000079650] | > 50 µM |
| CCC(=O)Nc1c2c(nn1-c1ccccc1C)CSC2 [MLS000087884] | > 50 µM |
| CS(=O)(=O)N1CCN(c2ccccc2NC(=O)c2ccc(Br)o2)CC1 [MLS000123947] | > 50 µM |
| NC(=O)c1cn([C@@H]2O[C@H](CO)[C@@H](O)[C@H]2O)c2ncnc(N)c12 [MLS000517268] | 12.1 µM |
| O=C(Nc1ccc(CN2CCOCC2)cc1)c1ccc(-c2cccc(Cl)c2)o1 [MLS000557592] | > 50 µM |
| CCC1=NNc2cccc3c(OC)ccc1c23 [SMR000140796] | > 50 µM |
| Clc1cncc(Cl)c1N=NCc1ccncc1 [SMR000206620] | > 50 µM |
